Data reported in patent US7754866B2 (Arena Pharmaceuticals, Inc., priority 1997, dated 2010).
Residue numbers refer to the chain shown, from its start. Where two headings read alike, the source gives them in different places.

Legend:
[1] = biological target: T1, mutated human 5HT2C receptor (AP-1) (Homo sapiens, UniProt P28335, S310K); assay: Competitive binding assay, [3H]mesulergine, AP-1; conditions: Competitive Binding AP-1 ([3H]mesulergine) IC50 Value (μM), 1 nM [3H]mesulergine, COS7 membranes
T1 construct: expressed in transfected cells; host or cells: COS7 cells, pCMV vector, transient
T1 sequence (P28335 33-458 S310K): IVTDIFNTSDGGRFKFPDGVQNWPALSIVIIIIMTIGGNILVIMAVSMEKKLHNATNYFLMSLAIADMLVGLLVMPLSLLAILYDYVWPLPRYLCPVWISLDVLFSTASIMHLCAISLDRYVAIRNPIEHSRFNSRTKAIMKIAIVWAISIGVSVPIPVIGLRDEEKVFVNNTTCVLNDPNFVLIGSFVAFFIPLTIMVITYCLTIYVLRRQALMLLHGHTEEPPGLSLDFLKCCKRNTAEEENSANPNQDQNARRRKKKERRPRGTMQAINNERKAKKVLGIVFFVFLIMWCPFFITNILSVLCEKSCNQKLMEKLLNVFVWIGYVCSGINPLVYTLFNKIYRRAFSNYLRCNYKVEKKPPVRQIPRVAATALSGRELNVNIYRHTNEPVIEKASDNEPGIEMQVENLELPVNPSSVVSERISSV

[2] = biological target: T2, constitutively active mutant human 5HT2C receptor AP-1 (Homo sapiens, UniProt P28335, S310K); assay: [35S]GTPγS binding assay with membranes of COS7 cells expressing AP-1; assay type: biochemical
T2 construct: expressed in transfected cells; host or cells: COS7 cells, pCMV vector, transient
T2 sequence (P28335 33-458 S310K): T1 sequence (P28335 33-458 S310K)

[3] = biological target: T3, 5HT2A receptors (fourth layer of the cerebral cortex) (Rattus norvegicus, UniProt P14842); assay: I125-LSD displacement from rat brain sections, cerebral cortex; assay type: binding, Sprague-Dawley rats; conditions: 1 micromolar compound, 1 nanomolar I125-LSD, autoradiography
T3 construct: from tissue; host or cells: horizontal sections of Sprague-Dawley rat brain, cerebral cortex
T3 sequence (P14842 whole entry): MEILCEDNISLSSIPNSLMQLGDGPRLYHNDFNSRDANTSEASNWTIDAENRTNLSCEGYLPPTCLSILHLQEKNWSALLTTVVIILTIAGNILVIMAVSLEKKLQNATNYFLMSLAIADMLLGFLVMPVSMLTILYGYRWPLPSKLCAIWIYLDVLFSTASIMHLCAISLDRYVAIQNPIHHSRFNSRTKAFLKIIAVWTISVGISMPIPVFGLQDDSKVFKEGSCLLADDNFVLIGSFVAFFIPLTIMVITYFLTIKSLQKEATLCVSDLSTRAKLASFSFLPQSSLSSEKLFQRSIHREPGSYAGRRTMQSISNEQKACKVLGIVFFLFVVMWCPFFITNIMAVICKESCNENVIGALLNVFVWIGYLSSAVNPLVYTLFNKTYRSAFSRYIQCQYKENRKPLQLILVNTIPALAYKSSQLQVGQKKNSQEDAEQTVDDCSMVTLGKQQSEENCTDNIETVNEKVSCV

[4] = test system: dopamine D2 receptors (caudate nucleus); assay: I125-LSD displacement from rat brain sections, caudate nucleus; assay type: binding, Sprague-Dawley rats; conditions: 1 micromolar compound, 1 nanomolar I125-LSD, autoradiography
[5] = biological target: T4, endogenous human 5-HT2C receptor (Homo sapiens, UniProt P28335)
T4 sequence (P28335 33-458): T1 sequence (P28335 33-458 S310K) with K278S

[6] = test system: amphetamine-stimulated locomotion; assay: Amphetamine-stimulated locomotor activity; assay type: in vivo, Sprague-Dawley rats; conditions: rats, s.c. 0.1, 1.0, 5.0 mg/kg; with exception of the highest dose (10 mg/kg); d-amphetamine sulfate 1.0 mg/kg
Excerpt: A 5HT2A receptor antagonist or inverse agonist is expected to decrease amphetamine-stimulated locomotion without affecting baseline locomotion See, for example, Soresnon, et al, 266(2) J. Pharmacol. Exp. Ther. 684 (1993). […] For the following study, the following parameters and protocol were utilized:
Adult male Sprague-Dawley rats were utilized for these studies. Animals were housed in groups of 2-3 in hanging plastic cages with food and water available at all times. Animals were weighed and handled for at least one day prior to surgery and throughout the studies. For these studies, Vehicle consisted of 90% ethanol (100%) and 10% water.
A San Diego Instruments Flex Field apparatus was used to quantify baseline and amphetamine-stimulated locomotor activity. This apparatus consists of four 16″×16″ clear plastic open fields. Photocell arrays (16 in each dimension) interfaced with a personal computer to automatically quantify activity. Several measures of activity can be assessed with the apparatus, including total photocell beam breaks. Animals (vehicle control and Compound treated) were injected s.c. 30 minutes prior to initiation of analysis. Following this 30 minute period, animals were placed individually into an open field and baseline activity was assessed for 30 minutes (habituation phase). […]

[7] = biological target: T5, human mutated 5HT2A receptor, AP-3 (Homo sapiens, UniProt P28223, T25N, form not given); assay: Inositol phosphate accumulation assay, AP-3; assay type: cell-based; conditions: summary statement;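 note: transfected 293 cells prelabeled with 3H-inositol, exposed to compound 120 min at 37 °C with LiCl and pargyline, inositol trisphosphates isolated by anion exchange and counted by scintillation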
T5 construct: rows headed: inverse agonist activity at the human 5HT2A receptor; other: summary statement; fused on or other part: Possibly intracellular loop 3 and cytoplasmic tail of human 5-HT2C (P28335), if the statement rests on AP-3
T5 sequence (P28223 whole entry T25N, looked up, form open, the tested form may be a part): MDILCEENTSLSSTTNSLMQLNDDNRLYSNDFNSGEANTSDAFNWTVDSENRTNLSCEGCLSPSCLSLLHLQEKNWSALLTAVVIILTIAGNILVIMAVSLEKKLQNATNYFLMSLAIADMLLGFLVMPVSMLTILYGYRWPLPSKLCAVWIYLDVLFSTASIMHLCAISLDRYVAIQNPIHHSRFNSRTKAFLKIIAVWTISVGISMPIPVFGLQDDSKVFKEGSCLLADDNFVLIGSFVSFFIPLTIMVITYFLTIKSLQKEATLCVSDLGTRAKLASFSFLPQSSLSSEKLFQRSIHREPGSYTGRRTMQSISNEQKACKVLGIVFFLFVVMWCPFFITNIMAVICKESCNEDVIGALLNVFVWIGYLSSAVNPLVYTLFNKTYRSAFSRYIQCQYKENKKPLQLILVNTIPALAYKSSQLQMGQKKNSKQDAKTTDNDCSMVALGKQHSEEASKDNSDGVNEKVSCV

[8] = biological target: T6, wild type human 5HT2A receptor (Homo sapiens, UniProt P28223); assay: Competitive binding assay, [3H]LSD, WT 5HT2A
T6 construct: expressed in transfected cells; host or cells: COS-7 cells, pCMV vector
T6 sequence (P28223 whole entry T25N/H452Y): as the sequence (P28223 whole entry T25N, looked up, form open, the tested form may be a part) above, with H452Y counted along it

[9] = biological target: T7, human mutated 5HT2A receptor, AP-3 (Homo sapiens, UniProt P28223, T25N); assay: Inositol phosphate accumulation assay, AP-3; assay type: cell-based; conditions: for remaining activity at 10 µM: read-out: IP3 % of Control;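 for all read-outs here: transfected 293 cells prelabeled with 3H-inositol, exposed to compound 120 min at 37 °C with LiCl and pargyline, inositol trisphosphates isolated by anion exchange and counted by scintillation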
T7 construct: Inositol Phosphate Accumulation AP-3 IC50 Value (nM); other: several concentrations; IP3 % of Control; other: one concentration of 10 μM, triplicate; control without test compound
T7 sequence (P28223 whole entry T25N, looked up): as the sequence (P28223 whole entry T25N, looked up, form open, the tested form may be a part) above

[10] = 12.5 μg COS7 membranes expressing AP-1, 1 μM GDP, eight concentrations in triplicate, read-out: IC50 (nM) in GTP-γ-[35S] Assay
[11] = competitive binding using LSD, read-out: WT 5HT2A LSD IC50
[12] = several concentrations, read-out: IP3 AP-3 IC50

Cn1cc(Br)c(-c2cccc(NC(=O)NCc3ccc(OC(F)(F)F)cc3)c2)n1 [Compound 116115]
melting point: 144.6 to 145.8 °C
IC50 [1]: 1.2 µM

CC[C@@H](CO)NC(=O)[C@@H]1C=C2c3cccc4c3c(cn4C)C[C@H]2N(C)C1 [Methysergide]
IC50 [2]: 6.1 nM

Clc1ccc2c(c1)N=C(N1CCNCC1)c1ccccc1N2 [Normethylclozapin]
IC50 [2, 10]: 21.4 nM

Cn1cc(Br)c(-c2cccc(NC(=O)c3ccc(OC(F)(F)F)cc3)c2)n1 [Compound 116101, N-[3-(4-bromo-1-methylpyrazol-3-yl)phenyl][4-trifluoromethoxyphenyl]carboxamide]
melting point: 138.6 to 139.6 °C

O=C(CCCN1CCC2(CC1)C(=O)NCN2c1ccccc1)c1ccc(F)cc1 [spiperone, reference compound]
displacement of I125-LSD from the cortex (5HT2A) [3]: displaces
displacement of I125-LSD from the caudate (dopamine D2) [4]: displaces

CN1CCN2c3ccccc3Cc3ccccc3C2C1 (stereo not shown) [mianserin]
effect on basal constitutive binding of [35S]GTPγS [5]: partial inverse agonist
inhibition of serotonin-stimulated [35S]GTPγS binding ([5]; 30 μM): completely inhibited

Cn1cc(Br)c(-c2cccc(NC(=O)c3ccc(Cl)cc3)c2)n1 [Compound 116120, N-[3-(4-bromo-1-methylpyrazol-3-yl)phenyl][4-chlorophenyl]carboxamide]
melting point: 184.4 to 184.8 °C
IC50 [1]: 1.2 µM

Cn1cc(Br)c(-c2cccc(NC(=O)c3cccs3)c2)n1 [Compound 116102, N-[3-(4-bromo-1-methylpyrazol-3-yl)phenyl][2-thienyl]carboxamide]
melting point: 127.8 to 128.6 °C
IC50 [1]: 2.8 µM
amphetamine-stimulated locomotion (photobeam breaks) [6]: decrease
inverse agonist activity at the human 5HT2A receptor [7]: potent inverse agonist

CSc1ccc2c(c1)C(N1CCN(C)CC1)Cc1ccccc1S2 (stereo not shown) [Methiothepin]
IC50 [2, 10]: 20.4 nM

COc1ccc(OC(=O)Nc2cccc(-c3nn(C)cc3Br)c2)cc1 [Compound 116100, N-[3-(4-bromo-1-methylpyrazol-3-yl)phenyl][4-methoxyphenoxy]carboxamide]
IC50 [8]: < 1 nM
melting point: 140.3 to 141.8 °C
IC50 [1]: 1.8 µM
IC50 ([9]; Inositol Phosphate Accumulation AP-3 IC50 Value (μM)): 0.0003 µM
displacement of I125-LSD from the cortex (5HT2A) [3]: selectively displace
displacement of I125-LSD from the caudate (dopamine D2) [4]: not the caudate

Cc1nc2sccn2c(=O)c1CCN1CCC(=C(c2ccc(F)cc2)c2ccc(F)cc2)CC1 [Ritanserin]
IC50 ([2]; read-out: IC50 (nM) in GTP-γ-[35S] Assay): 19.4 nM

CN(C(=O)Nc1cccc(-c2nn(C)cc2Br)c1)c1ccc(OC(F)(F)F)cc1 [Compound 116113, [{3-(4-bromo-1-methylpyrazol-3-yl)phenyl}-amino]-N-methyl-N-[4-(trifluoromethoxy)phenyl]carboxamide]
IC50 [8, 11]: 2 nM
IC50 [9, 12]: 0.193 µM

Cn1cc(Br)c(-c2cccc(NC(=O)Nc3ccc(C(F)(F)F)cc3)c2)n1 [Compound 116097, {[3-(4-bromo-1-methylpyrazol-3-yl)phenyl]-amino}-N-[4-(trifluoromethyl)phenyl]carboxamide]
IC50 [8, 11]: 65 nM
remaining activity at 10 µM [9]: 11%

Cn1cc(Br)c(-c2cccc(NC(=O)Nc3ccc(Cl)cc3)c2)n1 [Compound 116081, N-[3-(4-bromo-1-methylpyrazol-3-yl)phenyl][(4-chlorophenyl)amino]carboxamide]
difference in selectivity preference (IC50 values) for the 5HT2A receptor compared with the 5HT2C receptor ([8]; 5HT2A versus 5HT2C): 100 fold
IC50 [8, 11]: 11 nM
remaining activity at 10 µM [9]: 10%
IC50 [9, 12]: 0.0032 µM
